The target of assay [1] is T1, human androgen receptor (hAR) (Homo sapiens, UniProt P10275).
T1 construct: made in house; host or cells: baculovirus/Sf9 insect cells (crude extract)
T1 sequence (P10275 1-920): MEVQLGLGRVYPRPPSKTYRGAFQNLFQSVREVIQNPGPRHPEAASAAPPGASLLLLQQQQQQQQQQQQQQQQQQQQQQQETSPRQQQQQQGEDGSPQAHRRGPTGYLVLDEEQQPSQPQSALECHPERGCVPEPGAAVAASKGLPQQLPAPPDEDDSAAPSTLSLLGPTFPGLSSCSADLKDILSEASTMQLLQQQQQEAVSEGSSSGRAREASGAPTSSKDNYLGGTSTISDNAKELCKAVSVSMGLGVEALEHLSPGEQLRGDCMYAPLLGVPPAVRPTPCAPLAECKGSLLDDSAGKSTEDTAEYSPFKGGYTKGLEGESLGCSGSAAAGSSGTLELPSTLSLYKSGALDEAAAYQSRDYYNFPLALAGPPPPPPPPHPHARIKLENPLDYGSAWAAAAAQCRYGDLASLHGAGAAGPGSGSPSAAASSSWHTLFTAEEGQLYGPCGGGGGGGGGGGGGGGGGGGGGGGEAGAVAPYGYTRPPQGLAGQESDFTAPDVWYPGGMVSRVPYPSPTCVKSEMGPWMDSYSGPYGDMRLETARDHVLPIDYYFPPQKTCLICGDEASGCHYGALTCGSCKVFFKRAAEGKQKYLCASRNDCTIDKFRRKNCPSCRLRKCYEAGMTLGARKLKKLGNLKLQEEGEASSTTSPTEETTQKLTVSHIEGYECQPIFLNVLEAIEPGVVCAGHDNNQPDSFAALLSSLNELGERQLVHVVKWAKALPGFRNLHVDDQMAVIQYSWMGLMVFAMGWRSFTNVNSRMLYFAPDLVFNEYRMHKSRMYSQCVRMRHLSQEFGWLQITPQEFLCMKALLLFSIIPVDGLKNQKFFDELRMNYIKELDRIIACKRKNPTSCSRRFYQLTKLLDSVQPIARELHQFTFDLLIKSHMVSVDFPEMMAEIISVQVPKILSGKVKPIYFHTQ
Briefly: Competitive binding analysis on baculovirus/Sf9 generated hAR extracts with 3H-DHT tracer. The note with it: AR Binding IC50 (nM), hAR extract, 1 nM 3H-DHT, one hour at 4° C; mean of multiple tests. The method, boiled down:
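Baculovirus/Sf9-expressed hAR extract incubated with hydroxylapatite, 1 nM 3H-DHT and decreasing compound concentrations for 1 h at 4 °C, then washed three times to remove unbound tracer. Bound 3H-DHT compared with no-competitor maximum; affinity given as concentration inhibiting half of maximum binding, mean of multiple tests.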

The target in assay [2] is T2, androgen receptor (Homo sapiens, UniProt P10275).
T2 sequence (P10275 1-920 Q868H): T1 sequence (P10275 1-920) with Q868H
The assay is described as follows: AR antagonist cell assay (MDA-MB453-MMTV clone 54-19 luciferase reporter, 100 pM DHT). The conditions noted are these: MDA-MB453-MMTV clone 54-19, inhibition of 100 pM DHT induction, 17 hr; mean of multiple tests; read-out: AR Cell IC50. It is filed as cell-based. The method, boiled down: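 MDA-MB453 cells stably carrying an MMTV-ARE firefly luciferase reporter were plated overnight at 10,000/well in phenol-red-free, charcoal-stripped serum medium. Cells were stimulated with 100 pM DHT (final) for 17 hr at 37 °C, and AR antagonism was read as luciferase signal; values are means of multiple tests.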

Substitutions are numbered along the chain they refer to.

A word on the IC50: it is the midpoint of a concentration-inhibition curve.

Consider `CCCC(Oc1ccc(C#N)c(C(F)(F)F)c1)C(=O)NCc1ccccc1` (stereo not shown) [Example 4, 2-(4-Cyano-3-trifluoromethyl-phenoxy)-pentanoic acid benzylamide], for which the IC50 amounted to 445 nM in assay [1] and 57 nM in assay [2].
In the same order, the values of `CC(C)CC(Oc1ccc(C#N)c(C(F)(F)F)c1)C(=O)NCc1ccccc1` (stereo not shown) [Example 1, 2-(4-Cyano-3-trifluoromethyl-phenoxy)-4-methyl-pentanoic acid benzylamide] are 95 nM and 201 nM.
